Structures can show the parent of a compound that is named as a salt.
How the values were obtained:
[1] = tested on: nasal resistance in anesthetized dogs; assay: Effect on airway (nasal) resistance in anesthetized dogs following intranasal spray administration; type: in vivo, beagle dog; details: aerosol, mg per dog
Experimental: (§1) a. Method Beagle dogs of either sex, weighing 9-12 kg were anesthetized with nembutal (30 mg/kg, intravenously) with supplemental doses administered throughout the experiment as required. The dogs were intubated with a cuffed endotracheal tube and were ventilated with room air by means of a Harvard respiration pump. Arterial blood pressure was recorded from a femoral artery using a Statham P23Gb pressure transducer. A tachygraphic recording of heart rate was obtained from the blood pressure signal.
(§2) A constant flow of air (2 liters/minute); provided by an anesthetic machine (CAECO) was administered into a nasal cavity through a 6 cm long plastic tube tapered to a diameter of 6 mm to fit into the right nostril. The air perfused the nasal cavity and exited through the mouth. The resistance to the air flow exerted by the large surface area of the nasal mucosa was measured as a nasal pressure in cm of water, using Model MP 45 Validyne transducer. […] Since the amount of drug administered in this way is extremely small and not directly measurable, the doses were calculated from the concentration of drug in the humidifier and volume of fluid used in each administration (in mg per dog). The nasal resistance, heart rate and blood pressure were monitored prior to and then 2 hours following the drug administration. […]

[2] = tested on: nasal mucosa of rats; assay: Effect on Nasal Irritation in Rats; type: in vivo, rat (CD strain)
Experimental: The product of Example 4 was dissolved in phosphate buffered normal saline and adjusted to a pH of approximately 7. The solution was prepared at the following concentrations: 0.05, 0.15, 0.5 and 1.5 percent. Groups of five male rats (CD strain) were administered each dose. The rats were approximately 5 weeks old at the start of treatment. Prior to dosing, ketaminehydrochloride was administered intraperitoneally to produce transient anesthesia to facilitate test compound administration. Rats in each group were given 0.04 mL/day of the appropriate solution for 14 days. The dosage was divided equally between both nostrils (i.e., 0.02 mL/nostril/day).

[3] = Blood pressure and heart rate in anesthetized dogs following intranasal spray administration; type: in vivo, beagle dog
Experimental: as §1, §2

[4] = tested on: nasal mucosa; details: background art; cited from earlier work
[5] = up to 1.5%, 0.04 mL/day intranasal, 14 days

SMILES | threshold dose producing decrease of nasal resistance [1] [mg] | nasal mucosal injury [2, 5] | systemic toxic effects [2, 5] | systematic hemodynamic effects ([3]; at the effective nasal decongestant dose) | elevation of the blood pressure above the base level ([3]; highest tested dose, 1.65 mg) | irritation of the nasal mucosa [4] | toxicity or nasal injury ([2]; 0.05% to 0.15% concentrations) | nasal mucosal injury ([2]; 0.5% and 1.5% concentration) | systemic side effects and deaths ([2]; 0.5% and 1.5%, repeated administration)
Nc1c(Cl)cc(CC2=NCCN2)cc1Cl [Example 4, 2-[(3,5-Dichloro-4-aminobenzyl)]imidazoline hydrochloride] | 0.00165 | no nasal mucosal injury | no nasal mucosal injury or any systemic toxic effects | devoid of any systematic hemodynamic effects | approximately 10% | – | – | – | –
Cc1cc(C(C)(C)C)c(O)c(C)c1CC1=NCCN1 [oxymetazoline] | – | – | – | – | – | often cause irritation of the nasal mucosa | did not cause any toxicity or nasal injury | induced nasal mucosal injury | Systemic side effects and deaths occurred in most animals
c1ccc2c(CC3=NCCN3)cccc2c1 [naphazoline] | – | – | – | – | – | often cause irritation of the nasal mucosa | – | – | –

Reference: patent US4665095A, “Use of 2-[(3,5-dihalo-4-aminobenzyl)]imidazolines to stimulate alpha-1 adrenergic receptors and to treat nasal congestion” (Abbott Laboratories, priority 1985, dated 1987)
